Peptide text beside a SMILES is read from it. * marks the point of attachment. X1 = COC(=O)CC(N*)C(=O)COc1c(F)cccc1F; Quinaldoyl = O=C(c1ccc2ccccc2n1)*
Key:
caspase-3 = experiment: Dosage of caspase-3 activity in myocardial tissue, chronic ischemia (PMI) model; format: in vivo, rat; details: PMI 72 h
Description: The analyses were performed on 2 myocardial ischemia models: a chronic ischemia model and an acute ischemia model, followed by myocardial reperfusion after 30 min of occlusion.
Said models were realized with Wistar male rats (180-220 g). The coronary artery was ligatured according to Pfeffer et al protocol.
Briefly, the rats were anaesthetized by intraperitoneal administration of a mixture of Ketamine (150 mg/kg) and Xylazine (15 mg/kg), then intubated and mechanically ventilated. The animals were submitted to a left and median thoracotomy. An occlusion of the coronary artery was done with a silk wire (size: 7.0) at the more proximal point and below the auricle.
In the case of chronic ischemia, the ligature was maintained and the rib cage of the animal reclosed (PMI model for post myocardial infarction).
The animals were sacrificed by a pentobarbital lethal injection. […]
The supernatant was taken and divided into 2 tubes for of each sample. The tubes were placed at −80° C. before performing the spectrophotometric proteic dosage (BCA: cupper (II) sulphate+solution A of bicinchronic acid, DO measured at 550 nm) in transparent, with flat bottom, 96-well plates. […]

[1] = tested on: ischemiated and re-perfused hearts; experiment: Morphology of the hearts after ischemia-reperfusion; format: in vivo, rat; details: 30 min occlusion, IP injection 15 min before re-perfusion, 10 days after infarct
Description: In the case of reperfusion ischemia model (IR model), the silk wire was untied after 30 min of occlusion. The artery was then cleared and the myocardial territory reperfused. The control animals (sham operated) were submitted to the same surgery protocol as the above animals, but the silk wire was passed under the coronary without making any ligature.
The animals were sacrificed by a lethal injection of pentobarbital. The heart was excised and perfused 2-3 min. using Langendorf reverse route and a calcium-free washing solution (NaCl 117, KCl 5.7, NaHCO3 4.4, KH2PO4 1.5, MgCl2 1.7, HEPES 21, glucose 11, taurine 20, pH 7.2 adjusted to NaOH). The solution was then replaced by a PBS solution at 4% of PFA (about 10 ml). The heart was immersed in this fixation solution for about 1 h, and then washed with PBS 4%.
The animals were submitted to an occlusion of the left coronary artery during 30 min.
15 min before the re-perfusion, the animals were treated by an IP injection of D1 or DMSO. The animals were sacrificed after 72 h, 10 days after re-perfusion for an histological analysis of the hearts. The morphology of the hearts (PFA fixed 4%) 10 days after infarct is illustrated by FIG. 7.

## COC(=O)CC(NC(=O)[C@H](C)NC(=O)[C@@H](NC(=O)[C@H](CC(=O)OC)NC(=O)[C@@H](NC(=O)c1ccc2ccccc2n1)C(C)C)C(C)C)C(=O)COc1c(F)cccc1F (stereo partly drawn) [D1, (3S,6S,9S,12S)-methyl 15-(2-(2,6-difluorophenoxy)acetyl)-3,9-diisopropyl-6-(2-methoxy-2-oxoethyl)-12-methyl-1,4,7,10,13-pentaoxo-1-(quinolin-2-yl)-2,5,8,11,14-pentaazaheptadecan-17-oate] (Quinaldoyl-VD(OMe)VA-X1)
caspase-3; pre-treated rats, 0.01 or 1 mg/kg
  caspase-3 activity: inhibition of the caspase-3 activity
caspase-3; right ventricular (RV)
  caspase-3 basal activity: weak inhibition
[1]
  heart size (cardiac hypertrophy): prevents cardiac hypertrophy

Reference: patent US20100184703A1, “USE OF PEPTIDE DERIVATIVES FOR TREATING PATHOLOGIES RESULTING FROM ISCHEMIA” (CHIESI FARMACEUTICI S.p.A., priority 2007, published 2010)
